Among the data in PubChem BioAssay (NCI) are GI50 and TGI values, retold here.

Where “and” joins values, the source holds several entries; their conditions need not be identical. Identical values can stand only once.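 Method: 48-hour compound exposure of cells in 96-well plates, five concentrations, linear interpolation of endpoints. The concentration for 50% growth inhibition is given as GI50. TGI marks complete inhibition of growth.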

Test in all cases: growth of human tumour cells (NCI), 48 h
Assay [1] relates to ACHN renal.
The subject of assay [2] is SNB-75 CNS.
Assay [3] deals with SN12C renal.
Assay [4] concerns OVCAR-8 ovarian.
Assay [5] relates to NCI-H23 lung.
Assay [6] concerns MALME-3M melanoma.
Assay [7] has as its system NCI-H226 lung.
In assay [8] the test system is LOX IMVI melanoma.
The subject of assay [9] is IGROV1 ovarian.
The test system of assay [10] is RPMI-8226 leukemia.

Regarding `COc1cc(C(=O)/C=C/c2c(-c3ccc(F)cc3)nc3sccn23)cc(OC)c1OC`, the GI50 in assay [1] was 2.99 µM; in assay [2], 1.83 µM; in [3] it was 2 µM; in assay [4], 2.4 µM; in [5] it was 2.43 µM; in [6], 3.96 µM. The GI50 in assay [7] was 2.09 µM; in [8] it was 1.8 µM; in assay [9] it was 3.49 µM; in [10] it was 2.59 µM. The TGI in assay [1] is 13.2 µM; in assay [2] it was 7.31 µM; in assay [3] it was 15.8 µM; in [4] it was greater than 21.4 µM; in assay [5], 10.6 µM; in [6], greater than 33.9 µM. Further, the TGI in assay [7] is 9.99 µM; in [8], 5.15 µM; in assay [10] it was 44.6 µM.

As for `OC(COc1ccc(Cl)cc1Cl)CN1CCCC1` (stereo not drawn), the TGI in assay [1], in assay [2], in assay [3], in assay [4], in assay [5] and in assay [6] was greater than 100 µM in each case. Also, the TGI in [7], in [8], in assay [9] and in assay [10] was greater than 100 µM throughout.

On to `COc1cc(C/C=C/c2ccccc2)c(OC)cc1O`, for which the TGI in assay [1] was found to be 52.7 µM; in assay [2], 77.6 µM; in [3] it was 34.5 µM; in assay [4], 37 µM; in [5], 42.8 µM; in [6], 42.4 µM. The TGI in assay [7] came to 79.3 µM; in assay [8] it was 37.4 µM; in assay [9] it was 37.2 µM; in assay [10], 30.5 µM.

As for `COc1cc(Nc2ncc3c(n2)-c2ccc(Cl)cc2C(c2c(F)cccc2OC)=NC3)ccc1C(=O)O`, the GI50 in assay [1] is 2.34 µM; in assay [2], 2.23 µM; in [3], 4.04 µM; in [4] it was 8.94 µM; in assay [5], 10.9 µM; in [6], 16.9 µM. Also, the GI50 was 2.06 µM in assay [7], 0.91 µM in assay [8], 2.19 µM in assay [9] and 12 µM in assay [10]. Also, the TGI in assay [1] is 55.1 µM; in assay [2], 24.6 µM; in [3], greater than 90.4 µM; in assay [4], greater than 100 µM; in [5] it was 65.1 µM; in assay [6], greater than 89.1 µM. Also, the TGI in [7] is 18.1 µM; in [8], 21.3 µM; in assay [9], 19.3 µM; in [10], greater than 65 µM.

For `CC1=C[C@H]2c3c(c(O)c(O)c4oc5cc(O)cc(O)c5c(=O)c34)[C@H](c3cc(O)c(O)c4oc5cc(O)cc(O)c5c(=O)c34)[C@H]2C(C)(C)C1`, the GI50 in assay [1] is 1.73 µM and 1.84 µM; in assay [2], 1.51 µM and 2.08 µM; in assay [3], 1.84 µM and 2.11 µM; in [4], 2.38 µM and 3.39 µM; in [5] it was 1.04 µM and 1.21 µM; in assay [6], 1.73 µM and 1.98 µM. In addition, the GI50 was 2.16 µM and 1.99 µM in [7]; 1.12 µM and 0.87 µM in [8]; 1.36 µM and 2.05 µM in assay [9]; 0.915 µM and 0.392 µM in assay [10]. Further, the TGI was 5.27 µM and 10.2 µM in [1]; 10.5 µM and 12.7 µM in [2]; 6.88 µM and 8.24 µM in [3]; 2.95 µM and 3.39 µM in assay [5]; 4.1 µM and 5.31 µM in assay [6]; 5.88 µM and 5.25 µM in assay [7]. Besides, the TGI in assay [8] is 2.36 µM and 2.19 µM; in assay [9], 5.26 µM and 17 µM; in assay [10], 4.57 µM and 2.04 µM.

Turning to `Cc1sc2nc(-c3ccccn3)c(/C=N/N=C(N)N)n2c1C`, the GI50 in assay [1] was 7.29 µM; in assay [2] it was 21.2 µM; in [3], 14.4 µM; in [4], 6.65 µM; in [5] it was 6.37 µM; in assay [6], 4.53 µM. Moreover, the GI50 in assay [7] was 5.74 µM; in assay [8], 4.01 µM; in [9], 25.6 µM; in assay [10], 4.23 µM. Moreover, the TGI was 14.8 µM in assay [1]; 47.4 µM in [2]; 28.9 µM in [3]; 68.1 µM in assay [4]; 15.3 µM in assay [5]; 9.81 µM in assay [6]. The TGI is 15.5 µM in [7], 8.26 µM in [8], greater than 58.3 µM in assay [9] and 12.1 µM in assay [10].

For `O=C1CC(c2ccccc2)Cc2nc3ccc(Cl)cc3cc21` (stereo not drawn), the GI50 in [1] was 0.261 µM; in [2], 0.126 µM; in [3], 0.518 µM; in assay [4], 0.386 µM; in assay [5] it was 0.562 µM; in [6] it was 0.0453 µM. Also, the GI50 is 0.795 µM in [7], 0.626 µM in assay [8], 0.397 µM in assay [9] and 2.78 µM in [10]. The TGI in [1] was greater than 100 µM; in assay [2], 70.3 µM; in assay [3], greater than 84.9 µM; in assay [4], greater than 100 µM; in assay [5] it was greater than 100 µM; in assay [6], 52.9 µM. For the same compound, the TGI in [7] is greater than 23.6 µM; in assay [8], 26.2 µM; in assay [9], greater than 100 µM; in assay [10] it was 37.8 µM.

For `O=C1C2Cc3ccccc3CN2C(=O)N1CN1CCN(CN2C(=O)C3Cc4ccccc4CN3C2=O)CC1` (stereo not drawn), the TGI in assay [1], in assay [2], in [3], in [4], in assay [5] and in assay [6] was greater than 100 µM in each case. In addition, the TGI in assay [7], in [8], in assay [9] and in [10] was greater than 100 µM in each case.

As for `C#CCOCn1cnc2ncnc(Cl)c21`, the TGI in [1], in assay [2], in assay [3], in [4], in [5] and in assay [6] was greater than 100 µM in each case. The TGI in assay [7], in assay [8], in [9] and in [10] was greater than 100 µM in each case.
